Biological target: PAS domain-containing serine/threonine-protein kinase (Homo sapiens, UniProt Q96RG2)
Assay: Inhibition of purified human PASK kinase domain expressed in insect cells incubated for 10 mins using MBP protein by kinase-Glo luminescent kinase assay

Sequence of PAS domain-containing serine/threonine-protein kinase (Q96RG2 whole entry, the tested form may be a part): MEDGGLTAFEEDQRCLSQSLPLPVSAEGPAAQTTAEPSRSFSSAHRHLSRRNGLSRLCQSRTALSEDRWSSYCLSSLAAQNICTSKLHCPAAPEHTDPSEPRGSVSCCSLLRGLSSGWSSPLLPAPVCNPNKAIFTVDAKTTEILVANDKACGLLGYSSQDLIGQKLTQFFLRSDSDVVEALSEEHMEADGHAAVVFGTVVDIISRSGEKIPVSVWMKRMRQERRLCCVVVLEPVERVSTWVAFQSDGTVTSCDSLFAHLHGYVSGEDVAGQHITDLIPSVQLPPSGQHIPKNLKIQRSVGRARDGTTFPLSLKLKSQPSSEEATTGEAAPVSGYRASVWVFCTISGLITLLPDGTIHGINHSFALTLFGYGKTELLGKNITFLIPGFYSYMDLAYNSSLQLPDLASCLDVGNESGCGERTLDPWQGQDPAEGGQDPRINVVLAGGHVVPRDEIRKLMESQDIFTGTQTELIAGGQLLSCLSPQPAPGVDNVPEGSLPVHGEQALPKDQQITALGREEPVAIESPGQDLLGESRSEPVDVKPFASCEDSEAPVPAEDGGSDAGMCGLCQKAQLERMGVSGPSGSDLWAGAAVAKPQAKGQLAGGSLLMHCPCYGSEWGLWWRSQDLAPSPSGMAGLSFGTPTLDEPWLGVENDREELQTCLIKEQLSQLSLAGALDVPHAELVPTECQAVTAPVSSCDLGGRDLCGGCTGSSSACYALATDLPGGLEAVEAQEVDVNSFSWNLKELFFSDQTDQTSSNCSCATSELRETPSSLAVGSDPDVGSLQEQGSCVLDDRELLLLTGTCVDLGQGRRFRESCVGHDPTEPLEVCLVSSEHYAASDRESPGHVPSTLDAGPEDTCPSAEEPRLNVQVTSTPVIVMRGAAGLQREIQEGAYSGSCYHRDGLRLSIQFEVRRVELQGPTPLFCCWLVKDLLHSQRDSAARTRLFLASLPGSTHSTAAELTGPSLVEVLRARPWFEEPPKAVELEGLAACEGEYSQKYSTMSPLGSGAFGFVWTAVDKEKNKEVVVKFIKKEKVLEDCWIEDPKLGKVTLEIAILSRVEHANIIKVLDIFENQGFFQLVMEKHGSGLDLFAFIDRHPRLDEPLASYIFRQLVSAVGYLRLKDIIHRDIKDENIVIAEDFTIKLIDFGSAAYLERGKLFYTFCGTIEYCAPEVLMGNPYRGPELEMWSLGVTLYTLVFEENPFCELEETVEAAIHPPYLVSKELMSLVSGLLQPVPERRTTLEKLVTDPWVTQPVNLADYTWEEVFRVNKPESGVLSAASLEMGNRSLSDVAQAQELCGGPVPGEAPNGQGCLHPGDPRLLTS

IC50: ≤ 10 µM
SMILES: O=c1cc(-c2ccc3c(c2)OCO3)[nH]c2c(-c3ccccn3)cnn12
